Values quoted from earlier work as cited in patent US20030228369A1, “Process for conversion of high viscosity fluids and compositions thereof” (priority 2002, published 2003).

Conditions: pH about 1.2

- solubility at pH of the stomach / gastric fluid: not soluble
Compound: CC(C)=CCC1=C(O)[C@](O)(CC=C(C)C)C(=O)C(C(=O)CC(C)C)=C1O [humulon]
